From patent US12331044B2, “Inhibitors of histone deacetylase useful for the treatment or prevention of HIV infection” (Merck Sharp & Dohme LLC, priority 2018, dated 2025) come the findings set out here.

Like-named read-outs stand apart in the source and are kept apart here.

In one test the target is human HDAC2 (Homo sapiens (Human), UniProt Q92769). Nature of the test: HDAC2 inhibition assay (modified FLUOR DE LYS, 384-well). The test is classed as biochemical. Particulars: […] enzyme, 40 μM substrate BML-KI104, 3 h pre-incubation; read-out: HDAC2 IC50.
A further test addresses human HDAC8 (Homo sapiens (Human), UniProt Q9BY41). Briefly: HDAC8 inhibition assay (modified FLUOR DE LYS, 384-well). The test is classed as biochemical. Particulars: […] enzyme, 200 μM substrate BML-KI178, 3 h pre-incubation; read-out: HDAC8 IC50.
For the next test, the target named is human HDAC1 (Homo sapiens (Human), UniProt Q13547).
Test [1] deals with human HDAC3/SMRT heterodimer (Homo sapiens (Human), UniProt O15379).
A further test deals with HDAC6 (Homo sapiens (Human), UniProt Q9UBN7).
For a further test, the system named is KARN cells (Jurkat 2C4). Briefly: cells. Particulars: Homo sapiens.
Setting [2] is: read-out: Karn EC50 nM 0.1% NHS, 0.1% normal human serum, luciferase induction, 2 μM SAHA = 100%.
The mark [3] stands for this setting: read-out: Karn EC50 nM 5% NHS, 5% normal human serum, luciferase induction, 2 μM SAHA = 100%.

Chain of human HDAC2 (Q92769 whole entry): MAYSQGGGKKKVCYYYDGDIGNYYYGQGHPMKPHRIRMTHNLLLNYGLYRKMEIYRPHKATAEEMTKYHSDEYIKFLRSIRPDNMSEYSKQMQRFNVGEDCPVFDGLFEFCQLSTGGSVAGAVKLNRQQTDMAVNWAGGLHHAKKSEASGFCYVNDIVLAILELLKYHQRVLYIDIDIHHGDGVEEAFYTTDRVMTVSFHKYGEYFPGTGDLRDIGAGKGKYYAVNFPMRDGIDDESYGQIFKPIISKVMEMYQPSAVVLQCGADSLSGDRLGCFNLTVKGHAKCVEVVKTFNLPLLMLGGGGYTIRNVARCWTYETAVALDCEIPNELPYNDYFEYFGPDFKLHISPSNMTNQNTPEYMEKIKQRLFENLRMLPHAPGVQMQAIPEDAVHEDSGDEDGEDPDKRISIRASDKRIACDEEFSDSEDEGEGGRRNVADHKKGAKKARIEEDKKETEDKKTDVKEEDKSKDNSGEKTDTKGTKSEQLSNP
Chain of human HDAC1 (Q13547 whole entry): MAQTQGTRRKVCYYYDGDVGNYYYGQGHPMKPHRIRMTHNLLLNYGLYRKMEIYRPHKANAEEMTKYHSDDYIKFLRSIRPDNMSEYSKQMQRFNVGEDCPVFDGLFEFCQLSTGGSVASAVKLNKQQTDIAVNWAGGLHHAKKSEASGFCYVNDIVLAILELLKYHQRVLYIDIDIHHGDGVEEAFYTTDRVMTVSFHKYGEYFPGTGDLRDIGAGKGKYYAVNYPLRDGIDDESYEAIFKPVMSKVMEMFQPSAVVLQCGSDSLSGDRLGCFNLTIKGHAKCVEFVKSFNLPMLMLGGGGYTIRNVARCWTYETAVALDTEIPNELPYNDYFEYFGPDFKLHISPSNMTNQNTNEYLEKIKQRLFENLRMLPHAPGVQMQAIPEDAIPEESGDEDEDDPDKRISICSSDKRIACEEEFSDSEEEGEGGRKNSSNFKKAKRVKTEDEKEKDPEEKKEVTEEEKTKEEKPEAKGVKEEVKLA
Chain of human HDAC8 (Q9BY41 whole entry): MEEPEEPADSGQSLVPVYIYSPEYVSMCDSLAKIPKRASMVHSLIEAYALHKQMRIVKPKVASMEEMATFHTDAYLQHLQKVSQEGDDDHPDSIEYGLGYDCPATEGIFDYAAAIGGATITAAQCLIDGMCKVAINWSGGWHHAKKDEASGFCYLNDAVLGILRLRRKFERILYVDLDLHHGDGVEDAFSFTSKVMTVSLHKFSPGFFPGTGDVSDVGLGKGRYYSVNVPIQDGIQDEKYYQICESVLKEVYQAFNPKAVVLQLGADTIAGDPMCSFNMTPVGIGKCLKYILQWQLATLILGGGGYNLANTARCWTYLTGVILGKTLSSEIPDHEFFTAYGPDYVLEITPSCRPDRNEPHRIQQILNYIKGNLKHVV
Chain of human HDAC3/SMRT heterodimer (O15379 whole entry): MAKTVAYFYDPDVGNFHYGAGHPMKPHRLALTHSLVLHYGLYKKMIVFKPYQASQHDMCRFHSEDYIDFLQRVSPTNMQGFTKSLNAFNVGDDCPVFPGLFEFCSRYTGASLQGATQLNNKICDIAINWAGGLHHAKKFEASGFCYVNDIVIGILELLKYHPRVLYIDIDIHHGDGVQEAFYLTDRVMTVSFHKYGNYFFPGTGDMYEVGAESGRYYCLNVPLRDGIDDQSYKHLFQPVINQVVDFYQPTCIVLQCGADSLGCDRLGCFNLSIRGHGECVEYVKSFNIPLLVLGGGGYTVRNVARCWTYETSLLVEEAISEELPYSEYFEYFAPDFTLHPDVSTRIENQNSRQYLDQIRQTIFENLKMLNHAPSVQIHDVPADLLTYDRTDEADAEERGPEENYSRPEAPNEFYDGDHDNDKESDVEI
Chain of human HDAC3/SMRT heterodimer (Q9Y618 1-899 partner): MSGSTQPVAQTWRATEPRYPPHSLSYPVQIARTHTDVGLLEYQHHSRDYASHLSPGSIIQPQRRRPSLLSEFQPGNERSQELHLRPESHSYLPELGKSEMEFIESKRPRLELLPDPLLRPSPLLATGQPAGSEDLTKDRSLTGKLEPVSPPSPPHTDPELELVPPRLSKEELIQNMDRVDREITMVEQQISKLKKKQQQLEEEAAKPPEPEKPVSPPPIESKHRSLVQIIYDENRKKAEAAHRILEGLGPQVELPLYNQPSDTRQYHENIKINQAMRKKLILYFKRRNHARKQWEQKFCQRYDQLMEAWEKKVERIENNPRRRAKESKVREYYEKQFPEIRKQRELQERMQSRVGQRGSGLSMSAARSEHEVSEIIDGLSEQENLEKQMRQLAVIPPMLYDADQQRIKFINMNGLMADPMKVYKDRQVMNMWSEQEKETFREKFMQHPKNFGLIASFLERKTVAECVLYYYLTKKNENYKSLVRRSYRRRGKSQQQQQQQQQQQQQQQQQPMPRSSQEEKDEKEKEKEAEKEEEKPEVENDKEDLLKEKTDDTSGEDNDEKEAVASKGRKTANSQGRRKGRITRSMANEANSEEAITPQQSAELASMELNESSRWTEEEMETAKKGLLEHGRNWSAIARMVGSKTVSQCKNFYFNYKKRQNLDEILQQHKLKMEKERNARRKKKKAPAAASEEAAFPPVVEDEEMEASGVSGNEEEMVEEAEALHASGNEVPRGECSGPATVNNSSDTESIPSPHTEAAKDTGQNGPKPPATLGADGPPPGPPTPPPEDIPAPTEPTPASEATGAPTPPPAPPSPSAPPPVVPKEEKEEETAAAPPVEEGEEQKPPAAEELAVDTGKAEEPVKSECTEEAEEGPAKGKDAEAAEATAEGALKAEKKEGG
Chain of HDAC6 (Q9UBN7 whole entry): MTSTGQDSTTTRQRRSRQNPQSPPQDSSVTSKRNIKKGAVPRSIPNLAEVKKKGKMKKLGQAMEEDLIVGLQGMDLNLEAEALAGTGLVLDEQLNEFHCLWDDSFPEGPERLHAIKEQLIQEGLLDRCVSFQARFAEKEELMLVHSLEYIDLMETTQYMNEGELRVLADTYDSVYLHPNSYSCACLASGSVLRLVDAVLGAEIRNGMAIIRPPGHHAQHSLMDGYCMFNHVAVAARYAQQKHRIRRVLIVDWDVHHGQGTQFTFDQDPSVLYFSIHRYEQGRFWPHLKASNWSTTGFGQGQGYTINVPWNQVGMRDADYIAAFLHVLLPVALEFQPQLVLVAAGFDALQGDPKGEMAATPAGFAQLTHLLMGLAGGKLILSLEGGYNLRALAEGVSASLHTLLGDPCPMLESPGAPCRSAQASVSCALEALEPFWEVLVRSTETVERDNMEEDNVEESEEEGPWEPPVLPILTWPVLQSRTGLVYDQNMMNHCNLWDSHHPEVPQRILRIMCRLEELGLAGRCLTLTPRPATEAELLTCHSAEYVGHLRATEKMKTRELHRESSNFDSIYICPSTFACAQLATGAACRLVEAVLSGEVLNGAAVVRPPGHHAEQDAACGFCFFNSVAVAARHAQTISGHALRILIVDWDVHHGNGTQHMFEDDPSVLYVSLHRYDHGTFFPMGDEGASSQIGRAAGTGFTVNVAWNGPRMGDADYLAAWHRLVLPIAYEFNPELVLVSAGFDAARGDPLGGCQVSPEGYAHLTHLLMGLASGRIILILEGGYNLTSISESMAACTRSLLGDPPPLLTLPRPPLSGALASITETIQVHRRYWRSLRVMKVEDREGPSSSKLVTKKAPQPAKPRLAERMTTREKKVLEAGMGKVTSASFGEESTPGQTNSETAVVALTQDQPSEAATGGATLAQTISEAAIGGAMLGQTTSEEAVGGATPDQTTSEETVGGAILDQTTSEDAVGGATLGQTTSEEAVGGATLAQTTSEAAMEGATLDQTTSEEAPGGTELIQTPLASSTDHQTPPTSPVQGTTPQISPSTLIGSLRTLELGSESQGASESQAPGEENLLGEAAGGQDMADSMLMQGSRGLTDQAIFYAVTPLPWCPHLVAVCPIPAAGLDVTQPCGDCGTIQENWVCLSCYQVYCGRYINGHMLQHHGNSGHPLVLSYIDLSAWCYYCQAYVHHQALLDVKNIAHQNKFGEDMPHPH

As for `COc1ccc(-c2cnc([C@@H](N)CCCCCC(=O)c3ncco3)[nH]2)c(F)c1` [Example 140, (7S)-7-amino-7-[5-(2-fluoro-4-methoxyphenyl)-1H-imidazol-2-yl]-1-(1,3-oxazol-2-yl)heptan-1-one], the half-inhibitory concentration (IC50) – broadly, the concentration that inhibits the measured activity by half – is 6 nM on human HDAC2; > 900 nM at human HDAC8; 1 nM on human HDAC1; 1.3 nM in test [1]; > 900 nM at HDAC6. Moreover, the EC50 (commonly the concentration that produces a half-maximal response) with KARN cells (Jurkat 2C4) (setting [2]) worked out at 390 nM; in the test with KARN cells (Jurkat 2C4) (setting [3]) it was 860 nM.
On to `CS(=O)(=O)c1ccc(-c2cnc([C@@H](N)CCCCCC(=O)c3ncco3)[nH]2)c(F)c1` [Example 143, (7S)-7-amino-7-{5-[2-fluoro-4-(methylsulfonyl)phenyl]-1H-imidazol-2-yl}-1-(1,3-oxazol-2-yl)heptan-1-one], for which the 50% inhibitory concentration (IC50) was 35 nM at human HDAC2; > 900 nM on human HDAC8; 7.2 nM at human HDAC1; 7.9 nM in test [1]; > 900 nM on HDAC6. Besides, the concentration giving a half-maximal response (EC50) in the test on KARN cells (Jurkat 2C4) (setting [2]) was 1200 nM; in the test with KARN cells (Jurkat 2C4) (setting [3]) it was 1600 nM.
Regarding `COc1cc(O[C@H]2C[C@H](OC)C2)cc(-c2cnc([C@@H](N)CCCCCC(=O)c3ncco3)[nH]2)c1F` [Example 144, (7S)-7-amino-7-(5-{2-fluoro-3-methoxy-5-[(trans-3-methoxycyclobutyl)oxy]phenyl}-1H-imidazol-2-yl)-1-(1,3-oxazol-2-yl)heptan-1-one], the IC50 was 39 nM on human HDAC2; 210 nM at human HDAC8; 7 nM at human HDAC1; 6.4 nM in test [1]; > 900 nM against HDAC6. Further, the EC50 came to 650 nM in the test with KARN cells (Jurkat 2C4) (setting [2]) and 870 nM in the test with KARN cells (Jurkat 2C4) (setting [3]).
`COc1nc2ccccc2cc1-c1cnc([C@H](CCCCCC(=O)c2ncco2)NC(=O)c2ccncn2)[nH]1` [Example 149, N-[(1S)-1-[5-(2-methoxyquinolin-3-yl)-1H-imidazol-2-yl]-7-(1,3-oxazol-2-yl)-7-oxoheptyl]pyrimidine-4-carboxamide]: the half-inhibitory concentration (IC50) came out at 6.6 nM on human HDAC2; 140 nM on human HDAC8; 1.7 nM against human HDAC1; 1.5 nM in test [1]; 21000 nM against HDAC6. The EC50 in the test on KARN cells (Jurkat 2C4) (setting [2]) turned out to be 69 nM; in the test on KARN cells (Jurkat 2C4) (setting [3]), 360 nM.
As for `COc1nc2ccccc2cc1-c1cnc([C@H](CCCCCC(=O)c2ncco2)NC(=O)Cn2cccc2)[nH]1` [Example 150, N-[(1S)-1-[5-(2-methoxyquinolin-3-yl)-1H-imidazol-2-yl]-7-(1,3-oxazol-2-yl)-7-oxoheptyl]-2-(1H-pyrrol-1-yl)acetamide], the IC50 on human HDAC2 stood at 8.8 nM; on human HDAC8 it was 120 nM; against human HDAC1, 2.1 nM; in test [1] it was 1.5 nM; on HDAC6, 2700 nM. Also, the half-maximal effective concentration (EC50) in the test on KARN cells (Jurkat 2C4) (setting [2]) was 94 nM; in the test on KARN cells (Jurkat 2C4) (setting [3]), 500 nM.
As for `COc1nc2ccccc2cc1-c1cnc([C@H](CCCCCC(=O)c2ncco2)NC(=O)C2COCCO2)[nH]1` (stereo partly drawn) [Example 152, N-[(1S)-1-[5-(2-methoxyquinolin-3-yl)-1H-imidazol-2-yl]-7-(1,3-oxazol-2-yl)-7-oxoheptyl]-1,4-dioxane-2-carboxamide], the IC50 on human HDAC2 stood at 5.8 nM; on human HDAC8, 78 nM; against human HDAC1, 0.68 nM; in test [1], 1.6 nM; against HDAC6, 12000 nM. The EC50 in the test with KARN cells (Jurkat 2C4) (setting [2]) is 49 nM; in the test with KARN cells (Jurkat 2C4) (setting [3]), 350 nM.
On to `COc1cc2nc(C)ccc2cc1-c1cnc([C@H](CCCCCC(=O)c2ncco2)NC(=O)CN2CCOCC2=O)[nH]1` [Example 158, N-[(1S)-1-[5-(7-methoxy-2-methylquinolin-6-yl)-1H-imidazol-2-yl]-7-(1,3-oxazol-2-yl)-7-oxoheptyl]-2-(3-oxomorpholin-4-yl)acetamide], for which the IC50 stood at 5.6 nM on human HDAC2; 48 nM at human HDAC8; 1.1 nM against human HDAC1; 1.5 nM in test [1]; 590 nM on HDAC6. In addition, the EC50 with KARN cells (Jurkat 2C4) (setting [2]) and with KARN cells (Jurkat 2C4) (setting [3]) was 210 nM each time.
As for `COc1cc2nc(C)ccc2cc1-c1cnc([C@H](CCCCCC(=O)c2ncco2)NC(=O)c2cc3ncccn3n2)[nH]1` [Example 161, N-[(1S)-1-[5-(7-methoxy-2-methylquinolin-6-yl)-1H-imidazol-2-yl]-7-(1,3-oxazol-2-yl)-7-oxoheptyl]pyrazolo[1,5-a]pyrimidine-2-carboxamide], the 50% inhibitory concentration (IC50) is 11 nM on human HDAC2; 44 nM on human HDAC8; 1.7 nM at human HDAC1; 0.57 nM in test [1]; > 900 nM against HDAC6. The half-maximal effective concentration (EC50) in the test with KARN cells (Jurkat 2C4) (setting [2]) amounted to 75 nM; in the test with KARN cells (Jurkat 2C4) (setting [3]), 210 nM.
Turning to `COc1cc2nc(C)ccc2cc1-c1cnc([C@H](CCCCCC(=O)c2ncco2)NC(=O)Cn2cccc2)[nH]1` [Example 162, N-[(1S)-1-[5-(7-methoxy-2-methylquinolin-6-yl)-1H-imidazol-2-yl]-7-(1,3-oxazol-2-yl)-7-oxoheptyl]-2-(1H-pyrrol-1-yl)acetamide], the IC50 is 24 nM on human HDAC2; 300 nM on human HDAC8; 4.2 nM at human HDAC1; 1.5 nM in test [1]; > 900 nM against HDAC6. In addition, the figures for the EC50 in the test on KARN cells (Jurkat 2C4) (setting [2]) and with KARN cells (Jurkat 2C4) (setting [3]) were 650 nM and 1200 nM, respectively.
For `COc1cc2nc(C)ccc2cc1-c1cnc([C@H](CCCCCC(=O)c2ncco2)NC(=O)c2cc3n(n2)CCCO3)[nH]1` [Example 163, N-[(1S)-1-[5-(7-methoxy-2-methylquinolin-6-yl)-1H-imidazol-2-yl]-7-(1,3-oxazol-2-yl)-7-oxoheptyl]-6,7-dihydro-5H-pyrazolo[5,1-b][1,3]oxazine-2-carboxamide], the IC50 was 8.4 nM at human HDAC2; 38 nM at human HDAC8; 1.6 nM against human HDAC1; 0.53 nM in test [1]; > 900 nM on HDAC6. Besides, the EC50 with KARN cells (Jurkat 2C4) (setting [2]) worked out at 84 nM; with KARN cells (Jurkat 2C4) (setting [3]) it was 210 nM.
Take `COc1cc2nc(C)ccc2cc1-c1cnc([C@H](CCCCCC(=O)c2ncco2)NC(=O)c2cc3n(n2)CCS(=O)(=O)C3)[nH]1` [Example 165, N-[(1S)-1-[5-(7-methoxy-2-methylquinolin-6-yl)-1H-imidazol-2-yl]-7-(1,3-oxazol-2-yl)-7-oxoheptyl]-6,7-dihydro-4H-pyrazolo[5,1-c][1,4]thiazine-2-carboxamide 5,5-dioxide]: the IC50 on human HDAC2 was 7.2 nM; on human HDAC8, 41 nM; at human HDAC1 it was 2.3 nM; in test [1] it was 0.46 nM; at HDAC6, > 900 nM. The results for the EC50 in the test with KARN cells (Jurkat 2C4) (setting [2]) and with KARN cells (Jurkat 2C4) (setting [3]) were 370 nM and 760 nM, respectively.
`COc1cc2nc(C)ccc2cc1-c1cnc([C@H](CCCCCC(=O)c2ncco2)NC(=O)Cn2ccc(C)n2)[nH]1` [Example 166, N-[(1S)-1-[5-(7-methoxy-2-methylquinolin-6-yl)-1H-imidazol-2-yl]-7-(1,3-oxazol-2-yl)-7-oxoheptyl]-2-(3-methyl-1H-pyrazol-1-yl)acetamide]: the half-maximal inhibitory concentration (IC50) on human HDAC2 stood at 6.2 nM; on human HDAC8, 75 nM; against human HDAC1 it was 1.7 nM; in test [1], 0.56 nM; against HDAC6 it was 660 nM. Further, the EC50 in the test with KARN cells (Jurkat 2C4) (setting [2]) is 77 nM; in the test on KARN cells (Jurkat 2C4) (setting [3]), 200 nM.
For `COc1cc2nc(C)ccc2cc1-c1cnc([C@H](CCCCCC(=O)c2ncco2)NC(=O)c2cc3ccccn3n2)[nH]1` [Example 167, N-[(1S)-1-[5-(7-methoxy-2-methylquinolin-6-yl)-1H-imidazol-2-yl]-7-(1,3-oxazol-2-yl)-7-oxoheptyl]pyrazolo[1,5-a]pyridine-2-carboxamide], the IC50 at human HDAC2 was 13 nM; at human HDAC8, 63 nM; against human HDAC1 it was 2.2 nM; in test [1] it was 0.59 nM; against HDAC6, > 900 nM. Besides, the EC50 with KARN cells (Jurkat 2C4) (setting [2]) is 83 nM; in the test with KARN cells (Jurkat 2C4) (setting [3]), 400 nM.
As for `COc1cc2nc(C)ccc2cc1-c1cnc([C@H](CCCCCC(=O)c2ncco2)NC(=O)C2CCCCO2)[nH]1` (stereo partly drawn) [Example 168, N-[(1S)-1-[5-(7-methoxy-2-methylquinolin-6-yl)-1H-imidazol-2-yl]-7-(1,3-oxazol-2-yl)-7-oxoheptyl]tetrahydro-2H-pyran-2-carboxamide], the IC50 on human HDAC2 is 12 nM; at human HDAC8, 120 nM; against human HDAC1 it was 3 nM; in test [1], 1.2 nM; at HDAC6, > 900 nM. Also, the EC50 with KARN cells (Jurkat 2C4) (setting [2]) amounted to 100 nM; in the test on KARN cells (Jurkat 2C4) (setting [3]) it was 200 nM.
Turning to `COc1cc2nc(C)ccc2cc1-c1cnc([C@H](CCCCCC(=O)c2ncco2)NC(=O)C2CCCO2)[nH]1` (stereo partly drawn) [Example 169, N-[(1S)-1-[5-(7-methoxy-2-methylquinolin-6-yl)-1H-imidazol-2-yl]-7-(1,3-oxazol-2-yl)-7-oxoheptyl]tetrahydrofuran-2-carboxamide], the IC50 on human HDAC2 was 15 nM; at human HDAC8, 180 nM; on human HDAC1, 3.4 nM; in test [1] it was 1.2 nM; against HDAC6, > 900 nM. For the same compound, the concentration for a half-maximal effect (EC50) is 99 nM in the test with KARN cells (Jurkat 2C4) (setting [2]) and 270 nM in the test on KARN cells (Jurkat 2C4) (setting [3]).
Turning to `COc1cc2nc(C)ccc2cc1-c1cnc([C@H](CCCCCC(=O)c2ncco2)NC(=O)C2(C)CCCCO2)[nH]1` (stereo partly drawn) [Example 170, N-[(1S)-1-[5-(7-methoxy-2-methylquinolin-6-yl)-1H-imidazol-2-yl]-7-(1,3-oxazol-2-yl)-7-oxoheptyl]-2-methyltetrahydro-2H-pyran-2-carboxamide], the IC50 was 17 nM at human HDAC2; 220 nM on human HDAC8; 4.1 nM on human HDAC1; 1.6 nM in test [1]; > 900 nM against HDAC6. In addition, the figures for the EC50 in the test on KARN cells (Jurkat 2C4) (setting [2]) and in the test on KARN cells (Jurkat 2C4) (setting [3]) were 160 nM and 260 nM, respectively.
